For series [1], the target named is T1, STING receptor (Homo sapiens, UniProt Q86WV6, G230A/H232R/R293Q/R71H).
T1 construct: host or cells: THP-1 Dual cells (human monocytic THP-1 with NF-kB-SEAP and IRF-Lucia reporters)
The series can be described thus: THP-1 Dual assay, NF-κB pathway (SEAP reporter). The format is cell-based. Conditions: 18 h incubation. From the text:
(§1) The INVIVOGEN® THP-1 Dual™ assay (catalog code: thpd-nfis) was used to evaluate the listed compounds as agonist of the STING receptor. The THP-1 Dual™ cells are derived from the human monocytic cell line THP-1 by stable integration of two inducible reporter constructs. This assay enables simultaneous study of the two main signaling pathways for STING: (a) the NF-κB pathway, by monitoring the activity of secreted embryonic alkaline phosphatase (SEAP); and (b) the Interferon regulatory factor (IRF) pathway, by assessing the activity of a secreted luciferase (Lucia™).
(§2) The procedure as set forth by the manufacturer was followed, with the following modifications: (1) plates are incubated 18 h after addition of cell suspension, and (2) the optional differentiation step is not employed. Tables 1 and 2. Biological Activity

In series [2] the target is T1, STING receptor. The series is described as follows: THP-1 Dual assay, IRF pathway (secreted Lucia luciferase reporter; IRF3 activation). The format is cell-based. Conditions: 18 h incubation.
Description: as §1, §2
(In a reporter assay the amount or activity of a reporter protein is the signal.)

For series [3], the system named is MT4-2D cells. The series can be described thus: Mouse Ductal Pancreatic Cancer Assay (subcutaneous MT4-2D tumors, intra-tumoral injection). The format is in vivo, C57BL/6J mice. The conditions noted are these: 5 ug intra-tumorally on day 15. As for the experimental part:
Mouse Ductal Pancreatic Cancer Assay
The procedure of Boj et a. […] 2.5×10^5 MT4-2D cells were injected subcutaneously on the right flank of male 6 week old C57BL/6J mice. 5 ug of the indicated STING agonist was injected intra-tumorally on day 15 in a volume of 50 ul.

[4] abbreviates: day 0 post challenge (before dosing).
[5] abbreviates: day 4 post challenge (before dosing).
The mark [6] stands for this setting: day 6 post challenge (before dosing).
Where [7] appears, read: day 8 post challenge (before dosing).
[8] abbreviates: day 10 post challenge (before dosing).
The mark [9] stands for this setting: day 12 post challenge (before dosing).
[10] abbreviates: day 14 post challenge (before dosing).
Setting [11] is: day 15 post challenge (day of dosing).

SMILES strings stand for the structures.

T1 sequence (Q86WV6 whole entry R71H/G230A/H232R/R293Q): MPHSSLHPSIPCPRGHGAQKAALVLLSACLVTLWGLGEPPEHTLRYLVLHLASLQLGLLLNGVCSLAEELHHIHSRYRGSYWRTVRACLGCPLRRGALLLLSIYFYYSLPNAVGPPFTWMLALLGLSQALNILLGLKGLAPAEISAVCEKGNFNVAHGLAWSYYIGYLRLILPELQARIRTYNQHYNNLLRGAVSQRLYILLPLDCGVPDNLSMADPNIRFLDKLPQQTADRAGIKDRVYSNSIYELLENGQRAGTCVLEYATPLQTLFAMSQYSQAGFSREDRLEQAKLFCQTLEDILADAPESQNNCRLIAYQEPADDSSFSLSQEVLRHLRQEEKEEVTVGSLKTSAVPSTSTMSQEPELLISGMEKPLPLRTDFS

Turning to `Nc1ncnc2c1ccn2[C@@H]1O[C@@H]2CO[P@@](=O)(S)O[C@@H]3[C@@H](O)[C@H](n4cnc5c(N)ncnc54)O[C@@H]3COP(=O)(S)O[C@@H]1[C@@H]2O` (stereo partly drawn) [Example 3b, (1R,6R,8R,9R,10R,12R,15R,17R,18R)-17-(4-amino-7H-pyrrolo[2,3-d]pyrimidin-7-yl)-8-(6-amino-9H-purin-9-yl)-9,18-dihydroxy-3,12-dimercapto-2,4,7,11,13,16-hexaoxa-3λ^5, 12λ^5-diphosphatricyclo[13.2.1.0^6,10]octadecane-3,12-dione], the “Fold induction of NF-κB activation THP-1 Dual cells” value in series [1] (0.1 mg/mL STING agonist) came to 0.98 fold; in series [1] (0.5 mg/mL STING agonist) it was 0.99 fold; in series [1] (1 mg/mL STING agonist), 1.00 fold; in series [1] (5 mg/mL STING agonist) it was 1.08 fold; in series [1] (10 mg/mL STING agonist), 1.14 fold. In addition, the “Fold induction of IRF3 activation in THP-1 Dual cells” value (“Fold induction of IRF3 activation” for short) in series [2] (0.1 mg/mL STING agonist) is 1.38 fold; in series [2] (0.5 mg/mL STING agonist), 1.48 fold; in series [2] (1 mg/mL STING agonist), 1.56 fold; in series [2] (5 mg/mL STING agonist) it was 5.05 fold; in series [2] (10 mg/mL STING agonist), 6.70 fold.
In the case of `Nc1ncnc2c1ncn2[C@@H]1O[C@@H]2COP(=O)(S)O[C@@H]3[C@H](O)[C@@H](CO[P@@](=O)(S)O[C@H]2[C@H]1F)O[C@H]3n1cnc2c(N)ncnc21` (stereo partly drawn) [Example 2a, (1R,6R,8R,9R,10R,12R,15R,17R,18R)-8,17-di(6-amino-9H-purin-9-yl)-9-fluoro-18-hydroxy-3,12-dimercapto-2,4,7,11,13,16-hexaoxa-3λ^5, 12λ^5-diphosphatricyclo-[13.2.1.0^6,10]octadecane-3,12-dione], the “Tumor Vol” value is reported as 0.0 mm^3 in series [3] (setting [4]); 29.2 mm^3 in series [3] (setting [5]); 64.3 mm^3 in series [3] (setting [6]); 84.3 mm^3 in series [3] (setting [7]); 103.3 mm^3 in series [3] (setting [8]); 125.9 mm^3 in series [3] (setting [9]). Also, the “Tumor Vol” value in series [3] (setting [10]) was determined as 113.8 mm^3; in series [3] (setting [11]), 132.1 mm^3; in series [3] (day 16 post challenge) it was 134.0 mm^3; in series [3] (day 17 post challenge) it was 122.7 mm^3; in series [3] (day 18 post challenge), 82.8 mm^3; in series [3] (day 20 post challenge), 72.8 mm^3. Moreover, the “Tumor Vol” value is reported as 91.6 mm^3 in series [3] (day 22 post challenge); 124.0 mm^3 in series [3] (day 25 post challenge); 142.0 mm^3 in series [3] (day 27 post challenge); 163.1 mm^3 in series [3] (day 29 post challenge); 217.7 mm^3 in series [3] (day 32 post challenge).
For the compound `Nc1nc2c(ncn2[C@@H]2O[C@@H]3COP(=O)(O)O[C@H]4[C@@H](O)[C@H](n5cnc6c(=O)[nH]c(N)nc65)O[C@@H]4COP(=O)(O)O[C@H]3[C@H]2O)c(=O)[nH]1` [3′,5′-c-di-GMP, cyclic di-GMP (guanosine 5′-monophosphate), reference compound], the “Fold induction of NF-κB activation THP-1 Dual cells” value in series [1] (0.1 mg/mL STING agonist) is on record as 0.99 fold; in series [1] (0.5 mg/mL STING agonist), 0.98 fold; in series [1] (1 mg/mL STING agonist), 0.97 fold; in series [1] (5 mg/mL STING agonist), 1.02 fold; in series [1] (10 mg/mL STING agonist), 1.10 fold. The “Fold induction of IRF3 activation” value came out at 1.07 fold in series [2] (0.1 mg/mL STING agonist); 1.26 fold in series [2] (0.5 mg/mL STING agonist); 1.32 fold in series [2] (1 mg/mL STING agonist); 2.87 fold in series [2] (5 mg/mL STING agonist); 5.93 fold in series [2] (10 mg/mL STING agonist).
On to `Nc1ncnc2c1ncn2[C@@H]1O[C@@H]2COP(=O)(S)O[C@@H]3[C@H](O)[C@@H](CO[P@@](=O)(S)O[C@H]2[C@H]1F)O[C@H]3n1cnc2c(N)ncnc21` (stereo partly drawn) [Example 2b, (1R,6R,8R,9R,10R,12R,15R,17R,18R)-8,17-di(6-amino-9H-purin-9-yl)-9-fluoro-18-hydroxy-3,12-dimercapto-2,4,7,11,13,16-hexaoxa-3λ^5, 12λ^5-diphosphatricyclo-[13.2.1.0^6,10]octadecane-3,12-dione], for which the “Tumor Vol” value in series [3] (setting [4]) is listed as 0.0 mm^3; in series [3] (setting [5]) it was 28.4 mm^3; in series [3] (setting [6]) it was 53.9 mm^3; in series [3] (setting [7]), 66.5 mm^3; in series [3] (setting [8]), 87.4 mm^3; in series [3] (setting [9]), 98.3 mm^3. Further, the “Tumor Vol” value in series [3] (setting [10]) was determined as 106.6 mm^3; in series [3] (setting [11]), 114.7 mm^3; in series [3] (day 16 post challenge), 130.8 mm^3; in series [3] (day 17 post challenge), 128.3 mm^3; in series [3] (day 18 post challenge), 90.4 mm^3; in series [3] (day 20 post challenge), 115.3 mm^3. Further, the “Tumor Vol” value in series [3] (day 22 post challenge) is 64.9 mm^3; in series [3] (day 25 post challenge), 70.4 mm^3; in series [3] (day 27 post challenge), 80.7 mm^3; in series [3] (day 29 post challenge), 99.6 mm^3; in series [3] (day 32 post challenge), 102.6 mm^3.
Consider `Nc1ncnc2c1ccn2[C@@H]1O[C@@H]2COP(=O)(S)O[C@@H]3[C@H](O)[C@@H](CO[P@@](=O)(S)O[C@@H]2[C@H]1O)O[C@H]3n1cnc2c(N)ncnc21` (single isomer, unassigned) [Example 1a], for which, in series [1] (5 mg/mL STING agonist), the “Fold induction of NF-κB activation THP-1 Dual cells” value came to 2.77 fold. For the same compound, the entries for the “Fold induction of IRF3 activation” value in series [2] (1 mg/mL STING agonist) and in series [2] (5 mg/mL STING agonist) were 9.77 fold and 112.64 fold, respectively.
`Nc1ncnc2c1ncn2[C@@H]1O[C@@H]2COP(O)(=S)O[C@@H]3C(O)[C@@H](COP(O)(=S)O[C@H]2[C@H]1O)O[C@H]3n1cnc2c(N)ncnc21` (stereo partly drawn) [ML-RR-CDA, dithio-[Rp,Sp]-cyclic-[A(2′,5′)p-A(3′,5′)p], reference compound]: the “Tumor Vol” value in series [3] (setting [4]) was determined as 0.0 mm^3; in series [3] (setting [5]) it was 19.0 mm^3; in series [3] (setting [6]) it was 56.3 mm^3; in series [3] (setting [7]), 81.9 mm^3; in series [3] (setting [8]), 84.5 mm^3; in series [3] (setting [9]), 107.3 mm^3. In addition, the “Tumor Vol” value in series [3] (setting [10]) is on record as 110.9 mm^3; in series [3] (setting [11]) it was 125.6 mm^3; in series [3] (day 16 post challenge) it was 193.2 mm^3; in series [3] (day 22 post challenge), 147.2 mm^3; in series [3] (day 25 post challenge), 154.0 mm^3; in series [3] (day 27 post challenge) it was 241.4 mm^3. For the same compound, the results for the “Tumor Vol” value in series [3] (day 29 post challenge) and in series [3] (day 32 post challenge) were 198.5 mm^3 and 250.1 mm^3, respectively.
Take `Nc1ncnc2c1ccn2[C@@H]1O[C@@H]2COP(=O)(S)O[C@@H]3[C@H](O)[C@@H](CO[P@@](=O)(S)O[C@@H]2[C@H]1O)O[C@H]3n1cnc2c(N)ncnc21` (single isomer, unassigned) [Example 1b]: the “Fold induction of NF-κB activation THP-1 Dual cells” value is listed as 0.97 fold in series [1] (0.1 mg/mL STING agonist); 0.99 fold in series [1] (0.5 mg/mL STING agonist); 1.01 fold in series [1] (1 mg/mL STING agonist); 1.29 fold in series [1] (5 mg/mL STING agonist); 3.71 fold in series [1] (10 mg/mL STING agonist). In addition, the “Fold induction of IRF3 activation” value was determined as 0.99 fold in series [2] (0.1 mg/mL STING agonist); 1.88 fold in series [2] (0.5 mg/mL STING agonist); 3.52 fold in series [2] (1 mg/mL STING agonist); 25.91 fold in series [2] (5 mg/mL STING agonist); 87.63 fold in series [2] (10 mg/mL STING agonist).

The record behind these values is US12036231B2, “Cyclic dinucleotides as agonists of stimulator of interferon gene dependent signalling” (Board of Regents, The University of Texas System, priority 2017, dated 2024).
